What follows are compounds tested against human capsaicin receptor (VR1) (Homo sapiens, UniProt Q8NER1) (assay: Capsaicin receptor binding assay ([3H]RTX competition, VR1-transfected HEK293 membranes)). Details: not given.
human capsaicin receptor (VR1), sequence (Q8NER1 whole entry): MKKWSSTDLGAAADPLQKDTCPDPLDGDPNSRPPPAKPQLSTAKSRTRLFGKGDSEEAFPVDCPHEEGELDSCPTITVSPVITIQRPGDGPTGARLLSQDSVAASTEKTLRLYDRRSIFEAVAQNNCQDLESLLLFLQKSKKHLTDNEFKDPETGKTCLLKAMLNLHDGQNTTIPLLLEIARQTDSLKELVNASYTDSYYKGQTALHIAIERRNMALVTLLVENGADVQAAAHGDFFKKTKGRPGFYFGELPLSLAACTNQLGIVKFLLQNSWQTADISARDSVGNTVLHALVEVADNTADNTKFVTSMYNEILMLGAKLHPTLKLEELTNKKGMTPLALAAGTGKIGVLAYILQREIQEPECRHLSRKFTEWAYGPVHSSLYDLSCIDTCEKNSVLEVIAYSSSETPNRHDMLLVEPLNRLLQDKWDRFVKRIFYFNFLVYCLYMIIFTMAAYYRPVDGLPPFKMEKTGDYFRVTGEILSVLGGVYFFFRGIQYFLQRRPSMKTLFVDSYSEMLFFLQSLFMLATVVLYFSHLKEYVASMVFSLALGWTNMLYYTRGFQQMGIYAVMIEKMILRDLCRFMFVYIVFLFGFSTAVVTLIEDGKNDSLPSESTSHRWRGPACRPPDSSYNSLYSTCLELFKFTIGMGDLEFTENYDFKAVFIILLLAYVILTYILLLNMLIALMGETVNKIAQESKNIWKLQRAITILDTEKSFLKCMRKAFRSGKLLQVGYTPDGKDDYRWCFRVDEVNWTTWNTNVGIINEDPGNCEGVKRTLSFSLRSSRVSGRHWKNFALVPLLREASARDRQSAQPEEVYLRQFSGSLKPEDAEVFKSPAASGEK

Ki, < 1000 nM:
FC(F)(F)c1ccc(Nc2cc(CN3CCCCC3)nc3nc(-c4ncccc4C(F)(F)F)ccc23)cc1 [Compound 799, [2-Piperidin-1-ylmethyl-7-(3-trifluoromethyl-pyridin-2-yl)-[1,8]naphthyridin-4-yl]-(4-trifluoromethyl-phenyl)-amine]
FC(F)(F)c1ccc(Nc2cc(CN3CCOCC3)nc3nc(-c4ncccc4C(F)(F)F)ccc23)cc1 [Compound 800]
FC(F)(F)c1ccc(Nc2cc(CN3CCSCC3)nc3nc(-c4ncccc4C(F)(F)F)ccc23)cc1 [Compound 802, [2-Thiomorpholin-4-ylmethyl-7-(3-trifluoromethyl-pyridin-2-yl)-[1,8]naphthyridin-4-yl]-(4-trifluoromethyl-phenyl)-amine]
CC1CCCCN1Cc1cc(Nc2ccc(C(F)(F)F)cc2)c2ccc(-c3ncccc3C(F)(F)F)nc2n1 (stereo not drawn) [Compound 810, [2-(2-Methyl-piperidin-1-ylmethyl)-7-(3-trifluoromethyl-pyridin-2-yl)-[1,8]naphthyridin-4-yl]-(4-trifluoromethyl-phenyl)-amine]
CCC1CCCCN1Cc1cc(Nc2ccc(C(F)(F)F)cc2)c2ccc(-c3ncccc3C(F)(F)F)nc2n1 (stereo not drawn) [Compound 812, [2-(2-Ethyl-piperidin-1-ylmethyl)-7-(3-trifluoromethyl-pyridin-2-yl)-[1,8]naphthyridin-4-yl]-(4-trifluoromethyl-phenyl)-amine]
CCN(Cc1cc(Nc2ccc(C(F)(F)F)cc2)c2ccc(-c3ncccc3C(F)(F)F)nc2n1)C1CCCCC1 [Compound 813, [2-[(Cyclohexyl-ethyl-amino)-methyl]-7-(3-trifluoromethyl-pyridin-2-yl)-[1,8]naphthyridin-4-yl]-(4-trifluoromethyl-phenyl)-amine]
FC(F)(F)c1ccc(Nc2cc(CN3CC=CCC3)nc3nc(-c4ncccc4C(F)(F)F)ccc23)cc1 [Compound 816, [2-(3,6-Dihydro-2H-pyridin-1-ylmethyl)-7-(3-trifluoromethyl-pyridin-2-yl)-[1,8]naphthyridin-4-yl]-(4-trifluoromethyl-phenyl)-amine]
CN1CCN(Cc2cc(Nc3ccc(C(F)(F)F)cc3)c3ccc(-c4ncccc4C(F)(F)F)nc3n2)CC1 [Compound 817, [2-(4-Methyl-piperazin-1-ylmethyl)-7-(3-trifluoromethyl-pyridin-2-yl)-[1,8]naphthyridin-4-yl]-(4-trifluoromethyl-phenyl)-amine]

Same assay, conditions: Table III; capsaicin receptor binding

Ki, < 1000 nM:
[2-(2,6-Dimethyl- morpholin-4-ylmethyl)-7- (3-trifluoromethyl-pyridin- 2-yl)-pyrido[3,2- d]pyrimidin-4-yl]-(4- methanesulfonyl-phenyl)- amine (cis) [Compound 584]

Source: patent publication US20040156869A1, “2-substituted quinazolin-4-ylamine analogues” (Neurogen Corporation, priority 2002, published 2004)
